± gives the uncertainty stated by the source.
Assay: xn = mol fraction of the nth substance listed

CCCCOCCOCCO + ClC(Cl)(Cl)Cl
298.15 K, 101.33 kPa
Settings	viscosity [mPa·s]
x1 = 0.02	0.948 ± 0.024
x1 = 0.038	0.989 ± 0.025
x1 = 0.0629	1.05 ± 0.026
x1 = 0.0892	1.14 ± 0.028
x1 = 0.1363	1.29 ± 0.032
x1 = 0.18	1.442 ± 0.035
x1 = 0.2249	1.63 ± 0.039
x1 = 0.2644	1.796 ± 0.043
x1 = 0.3052	1.974 ± 0.047
x1 = 0.4307	2.594 ± 0.06
x1 = 0.4809	2.841 ± 0.065
x1 = 0.5267	3.065 ± 0.07
x1 = 0.5721	3.292 ± 0.075
x1 = 0.6126	3.489 ± 0.079
x1 = 0.6679	3.769 ± 0.085
x1 = 0.7225	4.032 ± 0.091
x1 = 0.7669	4.227 ± 0.095
x1 = 0.8132	4.438 ± 0.099
x1 = 0.8674	4.688 ± 0.11
x1 = 0.9149	4.885 ± 0.11
x1 = 0.9436	5.01 ± 0.11
x1 = 0.9724	5.074 ± 0.11

Cc1ccccc1N + ClC(Cl)(Cl)Cl
viscosity [mPa·s], 100 kPa
Settings	x2 = 0.0901	x2 = 0.1916	x2 = 0.2917	x2 = 0.3903	x2 = 0.4988	x2 = 0.6089	x2 = 0.6981	x2 = 0.7941	x2 = 0.8847
298.15 K	3.473 ± 0.074	3.194 ± 0.068	2.917 ± 0.062	2.642 ± 0.056	2.337 ± 0.05	2.026 ± 0.043	1.772 ± 0.038	1.497 ± 0.032	1.235 ± 0.026
303.15 K	3.049 ± 0.065	2.812 ± 0.06	2.575 ± 0.055	2.34 ± 0.05	2.079 ± 0.044	1.812 ± 0.039	1.593 ± 0.034	1.356 ± 0.029	1.13 ± 0.024
308.15 K	2.65 ± 0.057	2.452 ± 0.053	2.254 ± 0.048	2.056 ± 0.044	1.836 ± 0.039	1.611 ± 0.034	1.426 ± 0.03	1.224 ± 0.026	1.032 ± 0.022
313.15 K	2.34 ± 0.05	2.172 ± 0.047	2.003 ± 0.043	1.834 ± 0.039	1.646 ± 0.035	1.452 ± 0.031	1.292 ± 0.027	1.118 ± 0.024	0.951 ± 0.02
318.15 K	2.033 ± 0.044	1.895 ± 0.041	1.755 ± 0.038	1.616 ± 0.035	1.459 ± 0.031	1.296 ± 0.028	1.162 ± 0.025	1.016 ± 0.022	0.874 ± 0.019

Nc1ccccc1Cl + ClC(Cl)(Cl)Cl
viscosity [mPa·s], 100 kPa
Settings	x2 = 0.1011	x2 = 0.1916	x2 = 0.2901	x2 = 0.3811	x2 = 0.4923	x2 = 0.5989	x2 = 0.6911	x2 = 0.7741	x2 = 0.8897
298.15 K	3.882 ± 0.082	3.589 ± 0.076	3.268 ± 0.069	2.97 ± 0.063	2.604 ± 0.055	2.25 ± 0.047	1.942 ± 0.041	1.664 ± 0.035	1.273 ± 0.027
303.15 K	3.532 ± 0.075	3.269 ± 0.069	2.981 ± 0.063	2.713 ± 0.057	2.382 ± 0.05	2.063 ± 0.044	1.785 ± 0.038	1.533 ± 0.032	1.179 ± 0.025
308.15 K	3.158 ± 0.067	2.927 ± 0.062	2.675 ± 0.057	2.439 ± 0.052	2.149 ± 0.046	1.868 ± 0.04	1.622 ± 0.034	1.4 ± 0.03	1.086 ± 0.023
313.15 K	2.837 ± 0.06	2.634 ± 0.056	2.411 ± 0.051	2.203 ± 0.047	1.947 ± 0.041	1.699 ± 0.036	1.482 ± 0.031	1.284 ± 0.027	1.005 ± 0.021
318.15 K	2.566 ± 0.054	2.387 ± 0.051	2.189 ± 0.046	2.004 ± 0.042	1.776 ± 0.038	1.554 ± 0.033	1.361 ± 0.029	1.185 ± 0.025	0.934 ± 0.02

CCCCOCCOCCO + ClC(Cl)=C(Cl)Cl
298.15 K, 101.33 kPa
Settings	viscosity [mPa·s]
x1 = 0.0092	0.859 ± 0.009
x1 = 0.0253	0.883 ± 0.009
x1 = 0.0385	0.91 ± 0.009
x1 = 0.0481	0.929 ± 0.009
x1 = 0.0583	0.95 ± 0.009
x1 = 0.0816	1.001 ± 0.01
x1 = 0.0932	1.03 ± 0.01
x1 = 0.1188	1.09 ± 0.011
x1 = 0.1559	1.186 ± 0.012
x1 = 0.1903	1.289 ± 0.013
x1 = 0.2322	1.413 ± 0.014
x1 = 0.2748	1.557 ± 0.015
x1 = 0.3127	1.691 ± 0.017
x1 = 0.3556	1.851 ± 0.018
x1 = 0.3911	2 ± 0.02
x1 = 0.4295	2.16 ± 0.021
x1 = 0.4585	2.288 ± 0.023
x1 = 0.4917	2.445 ± 0.024
x1 = 0.531	2.635 ± 0.026
x1 = 0.575	2.845 ± 0.029
x1 = 0.6181	3.066 ± 0.031
x1 = 0.666	3.31 ± 0.034
x1 = 0.7112	3.548 ± 0.037
x1 = 0.7734	3.894 ± 0.041
x1 = 0.8415	4.283 ± 0.045
x1 = 0.8983	4.615 ± 0.049
x1 = 0.929	4.805 ± 0.052
x1 = 0.9482	4.918 ± 0.053
x1 = 0.9696	5.061 ± 0.055
x2 = 0.0169	5.131 ± 0.055

CCCCOCCOCCO + ClC(Cl)Cl
298.15 K, 101.33 kPa
Settings	viscosity [mPa·s]
x1 = 0.0036	0.538 ± 0.015
x1 = 0.013	0.559 ± 0.015
x1 = 0.0198	0.572 ± 0.016
x1 = 0.0347	0.607 ± 0.017
x1 = 0.0576	0.674 ± 0.018
x1 = 0.0854	0.755 ± 0.02
x1 = 0.1232	0.882 ± 0.023
x1 = 0.1802	1.118 ± 0.028
x1 = 0.2156	1.281 ± 0.031
x1 = 0.2883	1.65 ± 0.039
x1 = 0.3513	2.01 ± 0.047
x1 = 0.427	2.46 ± 0.057
x1 = 0.486	2.828 ± 0.065
x1 = 0.539	3.148 ± 0.072
x1 = 0.6168	3.591 ± 0.081
x1 = 0.6945	4.021 ± 0.091
x1 = 0.7358	4.19 ± 0.094
x1 = 0.7844	4.415 ± 0.099
x1 = 0.8159	4.545 ± 0.1
x1 = 0.859	4.758 ± 0.11
x1 = 0.9079	4.913 ± 0.11
x1 = 0.94	5.021 ± 0.11
x1 = 0.9514	5.04 ± 0.11
x1 = 0.9582	5.061 ± 0.11
x1 = 0.9656	5.083 ± 0.11
x2 = 0.0054	5.185 ± 0.11

Cc1cccc(C)c1 + ClC(Cl)Cl
298.15 K, 101 kPa
Settings	viscosity [mPa·s]
x2 = 0.2254	0.5977 ± 0.0075
x2 = 0.4357	0.6026 ± 0.0076
x2 = 0.4615	0.6004 ± 0.0076
x2 = 0.5258	0.5981 ± 0.0075
x2 = 0.5786	0.5938 ± 0.0075
x2 = 0.6284	0.593 ± 0.0075
x2 = 0.6945	0.5876 ± 0.0074
x2 = 0.7272	0.5844 ± 0.0074

O=S1(=O)CCCC1 + ClCCCl
viscosity [mPa·s], 100 kPa
Settings	x1 = 0.0168	x1 = 0.1062	x1 = 0.2045	x1 = 0.3091	x1 = 0.4077	x1 = 0.5125	x1 = 0.6483	x1 = 0.8007	x1 = 0.9708
303.15 K	0.8741 ± 0.023	1.693 ± 0.04	2.594 ± 0.06	3.559 ± 0.081	4.475 ± 0.1	5.452 ± 0.12	6.725 ± 0.14	8.157 ± 0.16	9.753 ± 0.19
308.15 K	0.8027 ± 0.022	1.515 ± 0.036	2.303 ± 0.054	3.149 ± 0.072	3.949 ± 0.089	4.803 ± 0.11	5.911 ± 0.13	7.157 ± 0.15	8.551 ± 0.17
313.15 K	0.7524 ± 0.021	1.384 ± 0.034	2.086 ± 0.049	2.837 ± 0.065	3.545 ± 0.08	4.3 ± 0.097	5.28 ± 0.12	6.382 ± 0.13	7.617 ± 0.15

CCCCOCCOCCO + ClCCl
298.15 K, 101.33 kPa
Settings	viscosity [mPa·s]
x1 = 0.0047	0.418 ± 0.012
x1 = 0.012	0.433 ± 0.013
x1 = 0.02	0.448 ± 0.013
x1 = 0.0388	0.48 ± 0.014
x1 = 0.0685	0.56 ± 0.015
x1 = 0.1079	0.649 ± 0.017
x1 = 0.1533	0.78 ± 0.02
x1 = 0.1882	0.907 ± 0.023
x1 = 0.2206	1.028 ± 0.026
x1 = 0.2751	1.226 ± 0.03
x1 = 0.3166	1.409 ± 0.034
x1 = 0.3515	1.576 ± 0.038
x1 = 0.397	1.807 ± 0.043
x1 = 0.4383	2.028 ± 0.048
x1 = 0.4759	2.224 ± 0.052
x1 = 0.5118	2.425 ± 0.056
x1 = 0.5496	2.627 ± 0.061
x1 = 0.6026	2.965 ± 0.068
x1 = 0.6535	3.267 ± 0.074
x1 = 0.7124	3.628 ± 0.082
x1 = 0.7606	3.893 ± 0.088
x1 = 0.8051	4.163 ± 0.094
x1 = 0.854	4.458 ± 0.1
x1 = 0.9019	4.724 ± 0.11
x1 = 0.9342	4.893 ± 0.11
x1 = 0.9731	5.104 ± 0.11

— the CheMixHub viscosity set
